Assay results: US20240423971A1, “APPLICATION OF RIP2 INHIBITOR COMBINED WITH CHEMOTHERAPY DRUG” (NINGBO COMBIREG PHARMACEUTICAL TECHNOLOGY CO., LTD., priority 2021, published 2024)

How the values were obtained:
Type in all cases: in vivo, C57BL/6 mice
[1] = system: melanoma (B16F10); test: Melanoma (B16F10) tumor-bearing model, GSK583 combined with DTX; conditions: for tumor growth compared to the vehicle control group: B16-F10 s.c. in C57BL/6 mice, GSK583 1 mg/kg i.v. every 4 days x4, DTX 5 mg/kg i.v. every 7 days x3, to DAY 16
Description: Both of the test substances DTX and GSK583 were prepared as a 20×DMSO stock solution, which was diluted with normal saline containing 5% polyoxyethylene castor oil (Cremophor EL) to the administration concentration before use.
Experimental animals and tumor strains: SPF grade male wild-type C57BL/6 mice, 6 to 8 weeks old, purchased from Beijing Vital River Laboratory Animal Technology Co., Ltd. Cells used in the experiment: murine melanoma cells (B16-F10), purchased from ATCC.
Mice were randomly divided into 4 groups with 8 mice in each group based on body weight according to the method shown in (A and B of FIG. 4), namely: (i) vehicle control group; (ii) GSK583 (1 mg/kg) group; (iii) Docetaxel (DTX; 5 mg/kg) group; (iv) GSK583 (1 mg/kg)+DTX (5 mg/kg) group. DTX was administered intravenously once every 7 days for a total of 3 doses; GSK583 and vehicle control were administered intravenously once every 4 days for a total of 4 doses. The mice were subcutaneously inoculated with B16-F10 cells with a concentration of 2× 10^6 cells/mL and 0.1 mL/mouse, and the day of inoculation was recorded as DAY 0. The administration was started on DAY 1. During the administration, the animals were weighed every 2 days. The long diameter and short diameter of the tumor were measured with a vernier caliper. The tumor size was calculated by the formula: (½)×long diameter×(short diameter) 2. The mice were euthanized on DAY 16, and after dissection, the tumor was weighed and the tumor inhibition rate was calculated.

[2] = system: melanoma (B16F10); test: Melanoma (B16F10) tumor-bearing model, GSK583 combined with GEM; conditions: GSK583 1 mg/kg; for tumor growth compared to the vehicle control group: B16-F10 s.c. in C57BL/6 mice, GEM 60 mg/kg i.v. once every 4 days, 4 doses, to DAY 15
Description: The test substance GEM was prepared in normal saline, and GSK583 was prepared as a 20×DMSO stock solution, which was diluted with normal saline containing 5% polyoxyethylene castor oil (Cremophor EL) to the administration concentration before use. Experimental animals and tumor strains: SPF grade male wild-type C57BL/6 mice, 6 to 8 weeks old, purchased from Beijing Vital River Laboratory Animal Technology Co., Ltd. Cells used in the experiment: murine melanoma cells (B16-F10), purchased from ATCC. Mice were randomly divided into 4 groups with 8 mice in each group based on body weight according to the method shown in (A and B of FIG. 6), namely: (i) vehicle control group; (ii) GSK583 (1 mg/kg) group; (iii) GEM (60 mg/kg) group; (iv) GSK583 (1 mg/kg)+GEM (60 mg/kg) group. GEM, GSK583, and vehicle control were administered intravenously once every 4 days for a total of 4 doses. The mice were subcutaneously inoculated with B16-F10 cells with a concentration of 2× 10^6 cells/mL and 0.1 mL/mouse, and the day of inoculation was recorded as DAY 0. The administration was started on DAY 1. During the administration, the animals were weighed every 2 days. The long diameter and short diameter of the tumor were measured with a vernier caliper. The tumor size was calculated by the formula: (½)× long diameter×(short diameter) 2. The experiment was terminated on DAY 15. After the mice were euthanized and dissected, the tumor was weighed and photographed, and the tumor inhibition rate was calculated.

[3] = system: colorectal cancer (MC38); test: Colorectal cancer (MC38) tumor-bearing model, GSK583 combined with GEM; conditions: GSK583 1 mg/kg; for tumor growth compared to the vehicle control group: MC38 s.c. in C57BL/6 mice, tumors 50 to 100 mm^3 at start, GEM 40 mg/kg i.v. once every 4 days, 4 doses, to DAY 14
Description: The test substance GEM was prepared in normal saline, and GSK583 was prepared as a 20×DMSO stock solution, which was diluted with normal saline containing 5% polyoxyethylene castor oil (Cremophor EL) to the administration concentration before use. Experimental animals and tumor strains: SPF grade male wild-type C57BL/6 mice, 6 to 8 weeks old, purchased from Beijing Vital River Laboratory Animal Technology Co., Ltd. Cells used in the experiment: murine colorectal cancer cells (MC38), purchased from Union Cell Bank (China). According to the method shown in (A and B of FIG. 8), the mice were subcutaneously inoculated with MC38 cells with a concentration of 2×10^6 cells/mL and 0.1 mL/mouse. When the tumor grew to a volume within the range of 50 to 100 mm^3, the mice were randomly divided into 4 groups with 8 mice in each group based on tumor volume, and the administration was started with the following regimen: (i) vehicle control group; (ii) GSK583 (1 mg/kg) group; (iii) GEM (40 mg/kg) group; (iv) GSK583 (1 mg/kg)+GEM (40 mg/kg) group. GEM, GSK583, and vehicle were administered intravenously once every 4 days for a total of 4 doses. The day of grouping and administration was recorded as DAY 0. During the administration, the animals were weighed every 3 days. The long diameter and short diameter of the tumor were measured with a vernier caliper. The tumor size was calculated by the formula: (½)× long diameter× (short diameter) 2. The experiment was terminated on DAY 14. After the mice were euthanized and dissected, the tumor was weighed and photographed, and the tumor inhibition rate was calculated.

[4] = system: colorectal cancer (MC38); test: Colorectal cancer (MC38) tumor-bearing model, GSK583 combined with OXA; conditions: GSK583 1 mg/kg; for tumor growth compared to the vehicle control group: MC38 s.c. in C57BL/6 mice, tumors 100 mm^3 at start, OXA 6 mg/kg i.v. once every 4 days, 4 doses, to DAY 14
Description: According to the method shown in (A and B of FIG. 10), the mice were subcutaneously inoculated with MC38 cells with a concentration of 5×10^6 cells/mL and 0.1 mL/mouse. […] OXA, GSK583, and vehicle were administered intravenously once every 4 days for a total of 4 doses. The day of grouping and administration was recorded as DAY 0. During the administration, the animals were weighed every 3 days. The long diameter and short diameter of the tumor were measured with a vernier caliper. The tumor size was calculated by the formula: (½)×long diameter×(short diameter) 2. The experiment was terminated on DAY 14. After the mice were euthanized and dissected, the tumor was weighed and photographed, and the tumor inhibition rate was calculated.

[5] = system: melanoma (B16F10); test: Melanoma (B16F10) tumor-bearing model, GSK583 combined with PTX; conditions: B16-F10 s.c. in C57BL/6 mice; GSK583 1 mg/kg, PTX 10 mg/kg i.v. once every 4 days, 4 doses; to DAY 15
Description: Both of the test substances PTX (Sigma) and GSK583 (MCE) were prepared as a 20× DMSO stock solution, which was diluted with normal saline containing 5% (v/v) polyoxyethylene castor oil (Cremophor EL) to the administration concentration before use. Experimental animals and tumor strains: SPF grade male wild-type C57BL/6 mice, 6 to 8 weeks old, purchased from Beijing Vital River Laboratory Animal Technology Co., Ltd. Cells used in the experiment: murine melanoma cell line (B16-F10), purchased from ATCC. Mice were randomly divided into 4 groups with 8 mice in each group based on body weight according to the method shown in (A of FIG. 1 and B of FIG. 1), namely: (i) vehicle control group; (ii) GSK583 (1 mg/kg) group; (iii) PTX (10 mg/kg) group; (iv) GSK583 (1 mg/kg)+PTX (10 mg/kg) group. PTX, GSK583, and vehicle were administered intravenously once every 4 days for a total of 4 doses. The mice were subcutaneously inoculated with B16-F10 cells with a concentration of 2× 10^6 cells/mL and 0.1 mL/mouse, and the day of inoculation was recorded as DAY 0. The administration was started on DAY 1. During the administration, the animals were weighed every 2 days. The long diameter and short diameter of the tumor were measured with a vernier caliper. The tumor size was calculated by the formula: (½)×long diameter×(short diameter) 2. The experiment was terminated on DAY 15. After the mice were euthanized and dissected, the tumor was weighed and the tumor inhibition rate was calculated.

CC(=O)O[C@@]12CO[C@@H]1C[C@H](O)[C@@]1(C)C(=O)[C@H](O)C3=C(C)[C@@H](OC(=O)[C@H](O)[C@@H](NC(=O)OC(C)(C)C)c4ccccc4)C[C@@](O)([C@@H](OC(=O)c4ccccc4)[C@H]21)C3(C)C [DTX, Docetaxel]
tumor weight at the end of the administration ([1]; B16-F10 in C57BL/6 mice, GSK583 1 mg/kg, DTX 5 mg/kg i.v., DAY 16, vs control group): significantly and statistically lower than that of the control group
growth rate of tumor volume ([1]; B16-F10 in C57BL/6 mice, GSK583 1 mg/kg, DTX 5 mg/kg i.v., vs control group): slower than that of the control group
tumor growth compared to the vehicle control group [1]: significantly inhibited tumor growth

Nc1ccn([C@@H]2O[C@H](CO)[C@@H](O)C2(F)F)c(=O)n1 [GEM, Gemcitabine]
tumor weight at the end of the administration ([2]; B16-F10 in C57BL/6 mice, GEM 60 mg/kg i.v. every 4 days x4, DAY 15, vs control group): significantly and statistically lower than that of the control group
growth rate of tumor volume ([2]; B16-F10 in C57BL/6 mice, GEM 60 mg/kg i.v. every 4 days x4, vs control group): slower than that of the control group
tumor growth compared to the vehicle control group [2]: significantly inhibited tumor growth
growth rate of tumor volume ([3]; MC38 in C57BL/6 mice, GEM 40 mg/kg i.v. every 4 days x4): no significant inhibitory effect
tumor growth compared to the vehicle control group [3]: no significant inhibitory effect

O=C1[O][Pt]2([NH][C@@H]3CCCC[C@H]3[NH]2)[O]C1=O [OXA, Oxaliplatin]
growth rate of tumor volume ([4]; MC38 in C57BL/6 mice, OXA 6 mg/kg i.v. every 4 days x4): no significant inhibitory effect
tumor growth compared to the vehicle control group [4]: no significant inhibitory effect

CC(C)(C)S(=O)(=O)c1ccc2nccc(Nc3n[nH]c4ccc(F)cc34)c2c1 [GSK583]
tumor growth compared to the vehicle control group [5]: no significant inhibitory effect on tumor growth
tumor growth compared to the vehicle control group [1]: no significant inhibitory effect on tumor growth
tumor growth compared to the vehicle control group [2]: no significant inhibitory effect on tumor growth
tumor growth compared to the vehicle control group [3]: no significant inhibitory effect on tumor growth
tumor growth compared to the vehicle control group [4]: no significant inhibitory effect on tumor growth
